Test results taken from patent US8729089B2 (Gilead Sciences, Inc., priority 2006, dated 2014).

Assays:
[1] = CC50 assay (CellTiter-Glo) in Huh-7 HCV replicon cells; assay type: cell-based, human; details: human, 3 days incubation, CellTiter-Glo readout
Experimental: (§1) The anti-HCV activity of the pyrido[3,2-d]pyrimidine derivatives of this invention was tested in a human hepatoma Huh-7 cell line harboring a HCV replicon. The assay comprised the following steps:
(§2) Step 1: Compound Preparation and Serial Dilution
(§3) • 1. for water soluble pyrido[3,2-d]pyrimidine derivatives, a volume of 500 μL of solution in cell media (DMEM, 10% FBS, P/S, L-Glutamine) was prepared with a concentration being twice the concentration of the starting final serial dilution concentration. A volume of 150 μL of the solution was added to the pre-specified wells in column 1 of a 96-well cell culture plate (PerkinElmer, white plate, cat. #6005181, for EC50 assay; black plate, cat. #6005182 for CC50 assay). The rest of the plate, columns 2-12, was filled with 100 μL of cell media. The plate was then placed on a Precision 2000 Workstation to start the serial dilution. Compounds were diluted three times each step from column 1 to column 10. Column 11 was used as a blank control (no compound added). • 2. for pyrido[3,2-d]pyrimidine derivatives requiring DMSO to dissolve, serial dilution is performed in 50% DMSO in a 384-well plate. A solution containing a compound at 100-fold concentration of the starting final serial dilution concentration was prepared in 50% DMSO and added to the pre-specified wells in column 1 of a polypropylene 384-well plate. The plate was then placed on a Precision 2000 Workstation to start the serial dilution. After the serial dilution, a volume of 2 μL of the solution was transferred from the 384-well plate to a 96-well cell culture plate containing 100 μL of cell media on a Biomek FX Workstation. The DMSO concentration in the final assay condition was 0.5% after cells are added to the plate and the total volume in each well is brought to 200 μL.
(§4) Step 2: to each well of the serial dilution plate prepared above, 100 μL of cell media containing 6000 suspended Huh-7 HCV replicon cells was added with a Multidrop workstation. The plates were incubated for 3 days at 37° C. with 5% CO2.
(§5) • a) for the EC50 assay, the media in a 96-well cell culture plate was aspirated with a Biotek EL405 plate-washer. A volume of 200 μL of a solution containing a 1:1 mixture of cell-lysis buffer (Promega, Luciferase Cell Culture Lysis 5× Reagent, cat. #E1531) and luciferase substrate solution (Promega, Luciferase Assay, cat.#E4550) was added to each well of the plate with Multidrop. The plate was incubated for 30 minutes at room temperature before the luminescence signal was measured with a TopCount plate-reader. • b) for the CC50 assay, a volume of 100 μL of pre-mixed CellTiter-Glo (Promega, cat.#G7572) solution is added directly to the cell culture in each well of the plate and the luminescence signal is measured with a TopCount plate-reader after 10 minutes of incubation at room temperature.

[2] = test system: HCV replicon in human hepatoma Huh-7 cell line; assay: Anti-HCV replicon assay (EC50, luciferase); assay type: cell-based; details: Hepatitis C virus, Huh-7, 72 h
Experimental: as §1, §2, §3, §4, §5

Compound	CC50 at 3 days [1] [µM]	EC50 [2] [µM]
CC(C)Nc1nc(Nc2ccc(F)cc2)nc2ccc(-c3ccc(F)cc3)nc12 [Example 49, 6-(4-Fluoro-phenyl)-N4-isopropyl-N2-(4-fluoro-phenyl)-pyrido[3,2-d]pyrimidine-2,4-diamine]	> 25	0.25 to 2
CC(C)Nc1nc(Nc2ccccc2)nc2ccc(-c3ccc(F)cc3)nc12 [Example 50, 6-(4-Fluoro-phenyl)-N4-isopropyl-N2-phenyl-pyrido[3,2-d]pyrimidine-2,4-diamine]	> 25	0.25 to 2
CN(C)c1nc(NCc2ccc(F)cc2)nc2ccc(-c3ccc(F)cc3)nc12 [Example 51, 6-(4-Fluoro-phenyl)-N4-(N,N-dimethyl)-N2-(4-fluoro-benzyl)-pyrido[3,2-d]pyrimidine-2,4-diamine]	> 25	0.25 to 2
Cc1ccc(Nc2nc(NC(C)C)c3nc(-c4ccc(F)cc4)ccc3n2)nn1 [Example 52, 6-(4-Fluoro-phenyl)-N4-isopropyl-N2-(6-methyl-pyridazin-3-yl)-pyrido[3,2-d]pyrimidine-2,4-diamine]	5 to 25	0.25 to 2
CC(C)Nc1nc(NCc2ccccn2)nc2ccc(-c3ccc(F)cc3)nc12 [Example 53, 6-(4-Fluoro-phenyl)-N4-isopropyl-N2-pyridin-2-ylmethyl-pyrido[3,2-d]pyrimidine-2,4-diamine]	5 to 25	0.1 to 0.25
CC(C)Nc1nc(NCc2cccnc2)nc2ccc(-c3ccc(F)cc3)nc12 [Example 54, 6-(4-Fluoro-phenyl)-N4-isopropyl-N2-pyridin-3-ylmethyl-pyrido[3,2-d]pyrimidine-2,4-diamine]	5 to 25	0.1 to 0.25
CC(C)Nc1nc(NCC(F)(F)F)nc2ccc(-c3ccc(F)cc3)nc12 [Example 55, 6-(4-Fluoro-phenyl)-N4-isopropyl-N2-(2,2,2-trifluoro-ethyl)-pyrido[3,2-d]pyrimidine-2,4-diamine]	5 to 25	< 0.1
CC(C)Nc1nc(NCCN2CCOCC2)nc2ccc(-c3ccc(F)cc3)nc12 [Example 56, 6-(4-Fluoro-phenyl)-N4-isopropyl-N2-(2-morpholin-4-yl-ethyl)-pyrido[3,2-d]pyrimidine-2,4-diamine]	5 to 25	0.25 to 2
CC(C)Nc1nc(NCC(F)F)nc2ccc(-c3ccc(F)cc3)nc12 [Example 57, N2-(2,2-Difluoro-ethyl)-6-(4-fluoro-phenyl)-N4-isopropyl-pyrido[3,2-d]pyrimidine-2,4-diamine]	< 5	0.25 to 2
COCCNc1nc(NC(C)C)c2nc(-c3ccc(F)cc3)ccc2n1 [Example 58, 6-(4-Fluoro-phenyl)-N4-isopropyl-N2-(2-methoxy-ethyl)-pyrido[3,2-d]pyrimidine-2,4-diamine]	< 5	0.25 to 2
CCN(CC)c1nc(NCc2ccc(S(N)(=O)=O)cc2)nc2ccc(-c3ccc(F)cc3)nc12 [Example 59, 4-{[4-Diethylamino-6-(4-fluoro-phenyl)-pyrido[3,2-d]pyrimidin-2-ylamino]-methyl}-benzenesulfonamide]	5 to 25	< 0.1
Fc1ccc(-c2ccc3nc(NCC(F)(F)F)nc(NCC(F)(F)F)c3n2)cc1 [Example 60, 6-(4-Fluoro-phenyl)-2,4-bis(2,2,2-trifluoro-ethylamino)-pyrido[3,2-d]pyrimidine]	> 25	< 0.1
CCOc1nc(NCc2ccc(F)cc2)nc2ccc(-c3cnc(N)cn3)nc12 [Example 62, [6-(5-Amino-pyrazin-2-yl)-4-ethoxy-pyrido[3,2-d]pyrimidin-2-yl]-(4-fluoro-benzyl)-amine]	> 25	< 0.1
CCOc1nc(NCc2ccc(F)cc2)nc2ccc(-c3ccc(C(=O)NCCN(C)C)cc3)nc12 [Example 63, N-(2-Dimethylamino-ethyl)-4-[4-ethoxy-2-(4-fluoro-benzylamino)-pyrido[3,2-d]pyrimidin-6-yl]-benzamide]	< 5	< 0.1
CCOc1nc(NCc2ccc(F)cc2)nc2ccc(-c3ccc(F)c(Cl)c3)nc12 [Example 64, [6-(3-Chloro-4-fluoro-phenyl)-4-ethoxy-pyrido[3,2-d]pyrimidin-2-yl]-(4-fluoro-benzyl)-amine]	5 to 25	< 0.1
CCOc1nc(NCc2ccc(F)cc2)nc2ccc(-c3ccc(C(=O)NC4CC4)cc3)nc12 [Example 65, N-Cyclopropyl-4-[4-ethoxy-2-(4-fluoro-benzylamino)-pyrido[3,2-d]pyrimidin-6-yl]-benzamide]	> 25	< 0.1
CCOc1nc(NCc2ccc(F)cc2)nc2ccc(-c3cccc(NS(C)(=O)=O)c3)nc12 [Example 66, N-{3-[4-Ethoxy-2-(4-fluoro-benzylamino)-pyrido[3,2-d]pyrimidin-6-yl]-phenyl}-methanesulfonamide]	< 5	< 0.1
CCOc1nc(NCc2ccc(F)cc2)nc2ccc(-c3ccc(NC(=O)C4CC4)cc3)nc12 [Example 67, Cyclopropanecarboxylic acid {4-[4-ethoxy-2-(4-fluoro-benzylamino)-pyrido[3,2-d]pyrimidin-6-yl]-phenyl}-amide]	5 to 25	< 0.1
CCOc1nc(NCc2ccc(F)cc2)nc2ccc(-c3ccc(F)c(S(N)(=O)=O)c3)nc12 [Example 68, 5-[4-Ethoxy-2-(4-fluoro-benzylamino)-pyrido[3,2-d]pyrimidin-6-yl]-2-fluoro-benzenesulfonamide]	5 to 25	< 0.1
CCOc1nc(NCc2ccc(F)cc2)nc2ccc(-c3ccc(NC(=O)CO)cc3)nc12 [Example 69, N-{4-[4-Ethoxy-2-(4-fluoro-benzylamino)-pyrido[3,2-d]pyrimidin-6-yl]-phenyl}-2-hydroxy-acetamide]	> 25	< 0.1
CCOc1nc(NCc2ccc(F)cc2)nc2ccc(-c3ccc(NC(=O)CN)cc3)nc12 [Example 70, 2-Amino-N-{4-[4-ethoxy-2-(4-fluoro-benzylamino)-pyrido[3,2-d]pyrimidin-6-yl]-phenyl}-acetamide]	< 5	< 0.1
CCOc1nc(NCc2ccc(F)cc2)nc2ccc(-c3ccc(NC(=O)NCCN4CCOCC4)cc3)nc12 [Example 71, 1-{4-[4-Ethoxy-2-(4-fluoro-benzylamino)-pyrido[3,2-d]pyrimidin-6-yl]-phenyl}-3-(2-morpholin-4-yl-ethyl)-urea]	< 5	< 0.1
CCOc1nc(NCc2ccc(F)cc2)nc2ccc(-c3ccc(NC(=O)N4CCOCC4)cc3)nc12 [Example 72, Morpholine-4-carboxylic acid {4-[4-ethoxy-2-(4-fluoro-benzylamino)-pyrido[3,2-d]pyrimidin-6-yl]-phenyl}-amide]	5 to 25	< 0.1
CCOc1nc(NCc2ccc(F)cc2)nc2ccc(-c3ccc(NC(=O)N4CCCC4)cc3)nc12 [Example 73, Pyrrolidine-1-carboxylic acid {4-[4-ethoxy-2-(4-fluoro-benzylamino)-pyrido[3,2-d]pyrimidin-6-yl]-phenyl}-amide]	5 to 25	< 0.1
CCOc1nc(NCc2ccc(F)cc2)nc2ccc(-c3ccc(NC(=O)NC4CC4)cc3)nc12 [Example 74, 1-Cyclopropyl-3-{4-[4-ethoxy-2-(4-fluoro-benzylamino)-pyrido[3,2-d]pyrimidin-6-yl]-phenyl}-urea]	5 to 25	< 0.1
CCOc1nc(NCc2ccc(F)cc2)nc2ccc(-c3ccc(NC(N)=O)cc3)nc12 [Example 75, {4-[4-Ethoxy-2-(4-fluoro-benzylamino)-pyrido[3,2-d]pyrimidin-6-yl]-phenyl}-urea]	> 25	< 0.1
CCOc1nc(NCc2ccc(F)cc2)nc2ccc(-c3ccc(N4CC(O)CC4=O)cc3)nc12 (centres unmarked) [Example 76, 1-{4-[4-Ethoxy-2-(4-fluoro-benzylamino)-pyrido[3,2-d]pyrimidin-6-yl]-phenyl}-4-hydroxy-pyrrolidin-2-one]	5 to 25	< 0.1
CCOc1nc(NCc2ccc(F)cc2)nc2ccc(-c3ccc4[nH]ncc4c3)nc12 [Example 77, [4-Ethoxy-6-(1H-indazol-5-yl)-pyrido[3,2-d]pyrimidin-2-yl]-(4-fluoro-benzyl)-amine]	5 to 25	< 0.1
